Results published in US12643871B2, “Aryl formamide compound containing chiral sulfur oxide or salt thereof, preparation method, herbicidal composition and use thereof” (Qingdao Kingagroot Chemical Compound Co., Ltd., priority 2019, dated 2026).

Tests used:
Type in all cases: in vivo
[1] = system: key weeds such as Digitaria sanguinalis, Leptochloa chinensis; assay: Comparison experiment (post-emergence, Tables 4-7), herbicidal activity on weeds not listed separately
Text: The above growth control rates are fresh weight control rates.
Experiment on weeding effect in post-emergence stage: monocotyledonous and dicotyledonous weed seeds (Descurainia sophia, Capsella bursa-pastoris, Galium aparine, Stellaria media, Lithospermum arvense, Rorippa indica, Alopecurus aequalis, Beckmannia syzigachne, Sclerochloa dura, Phleum paniculatum, Bromus japonicus, Aegilops tauschii, Phalaris arundinacea, Amaranthus retroflexus, Chenopodiaceae, Commelina communis, Sonchus arvensis, convolvulus arvensis, Cirsium setosum, Solanum nigrum, Acalypha australis, Digitaria sanguinalis, Echinochloa crusgalli, Setaria viridis, Setaria glauca, Leptochloa chinensis, Monochoria vaginalis, Sagittaria trifolia, Scirpus juncoides, Cyperus rotundus, Cyperus iria, Cyperus difformis, Fimbristylis, Portulaca oleracea, Xanthium sibiricum, Pharbitis nil) and major crop seeds (wheat, corn, rice, soybean, cotton, oilseed rape, millet, sorghum, potato, sesame, ricinus) were placed in plastic pots filled with soil, then covered with 0.5-2 cm of soil, allowed to grow in a good greenhouse environment. After 2 weeks of sowing, the test plants were treated in the 2 leaf stage. The tested compounds of the present invention were respectively dissolved in acetone, then added with Tween 80 and 1.5 liter/ha of emulsifiable concentrate of methyl oleate as synergist, diluted with a certain amount of water to obtain a solution with a certain concentration, and sprayed with a spray tower onto the plants. After the application, the plants were cultured for 15 days in the greenhouse, and then the experimental results of the weeding were counted. The doses of the used compounds were 500, 250, 125, 60, 30, 15 g/ha, and the averages were obtained by repeating for three times.
If there is no clear marker, the post-seedling test conditions are the same as above, and the experimental results are shown in Tables 4-7.

Setaria viridis = assay: Weeding effect in post-emergence stage; details: 250 g/ha; 2 leaf stage; 15 days after application; fresh weight control rate
In short: (§1)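 Activity graded 0 (<5%) to 5 (>85%) from fresh-weight control rate, averaged over three repeats, 15 days after a spray-tower application. Plants at 2-leaf stage (2 weeks post-sowing) received 15–500 g/ha of compound formulated in acetone, Tween 80 and methyl oleate synergist (1.5 L/ha).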

Amaranthus retroflexus = assay: Weeding effect in post-emergence stage; details: 250 g/ha; 2 leaf stage; 15 days after application; fresh weight control rate
In short: as §1

Echinochloa crusgali = assay: Weeding effect in post-emergence stage; details: 250 g/ha; 2 leaf stage; 15 days after application; fresh weight control rate
In short: as §1

Digitaria sanguinalis = assay: Weeding effect in post-emergence stage; details: 250 g/ha; 2 leaf stage; 15 days after application; fresh weight control rate
In short: as §1

Abutilon theophrasti = assay: Weeding effect in post-emergence stage; details: 250 g/ha; 2 leaf stage; 15 days after application; fresh weight control rate
In short: as §1

[2] = doses of 125, 60, 30, 15 g/ha, X replaced by other five membered rings

CCCC[S@@+]([O-])c1c(C(F)(F)F)ccc(C(=O)Nc2nnc(C)o2)c1OC [Compound 308]
herbicidal activity and/or crop safety compared with the corresponding racemate or S configuration ([1]; no dose stated): better herbicidal activity and/or crop safety | weeding effect in post-emergence stage, activity level (growth control rate), Setaria viridis (Setaria viridis): 5 (Level 5: growth control rate is above 85%) | weeding effect in post-emergence stage, activity level (growth control rate), Amaranthus retroflexus (Amaranthus retroflexus): 5 (Level 5: growth control rate is above 85%) | weeding effect in post-emergence stage, activity level (growth control rate), Echinochloa crusgali (Echinochloa crusgali): 5 (Level 5: growth control rate is above 85%) | weeding effect in post-emergence stage, activity level (growth control rate), Digitaria sanguinalis (Digitaria sanguinalis): 5 (Level 5: growth control rate is above 85%) | weeding effect in post-emergence stage, activity level (growth control rate), Abutilon theophrasti (Abutilon theophrasti): 5 (Level 5: growth control rate is above 85%)

CCC[S@@+]([O-])c1c(C(F)(F)F)ccc(C(=O)Nc2nnnn2CC)c1F [Compound 382]
herbicidal activity and/or crop safety compared with the corresponding racemate or S configuration [1, 2]: better herbicidal activity and/or crop safety | weeding effect in post-emergence stage, activity level (growth control rate), Amaranthus retroflexus (Amaranthus retroflexus): 5 (Level 5: growth control rate is above 85%) | weeding effect in post-emergence stage, activity level (growth control rate), Echinochloa crusgali (Echinochloa crusgali): 5 (Level 5: growth control rate is above 85%)

CCC[S@@+]([O-])c1c(C(F)F)ccc(C(=O)Nc2nnnn2C)c1Cl [Compound 618]
herbicidal activity and/or crop safety compared with the corresponding racemate or S configuration [1, 2]: better herbicidal activity and/or crop safety | weeding effect in post-emergence stage, activity level (growth control rate), Amaranthus retroflexus (Amaranthus retroflexus): 5 (Level 5: growth control rate is above 85%) | weeding effect in post-emergence stage, activity level (growth control rate), Echinochloa crusgali (Echinochloa crusgali): 5 (Level 5: growth control rate is above 85%) | weeding effect in post-emergence stage, activity level (growth control rate), Digitaria sanguinalis (Digitaria sanguinalis): 5 (Level 5: growth control rate is above 85%)

CSc1c(C(=O)Nc2nnc(C)o2)ccc(C(F)(F)F)c1[S@+]([O-])C(C)C [Compound 549]
herbicidal activity and/or crop safety compared with the corresponding racemate or S configuration ([1]; dose of 120, 48, 30, 24 g/ha): better herbicidal activity and/or crop safety | weeding effect in post-emergence stage, activity level (growth control rate), Amaranthus retroflexus (Amaranthus retroflexus): 5 (Level 5: growth control rate is above 85%) | weeding effect in post-emergence stage, activity level (growth control rate), Echinochloa crusgali (Echinochloa crusgali): 5 (Level 5: growth control rate is above 85%) | weeding effect in post-emergence stage, activity level (growth control rate), Digitaria sanguinalis (Digitaria sanguinalis): 5 (Level 5: growth control rate is above 85%) | weeding effect in post-emergence stage, activity level (growth control rate), Abutilon theophrasti (Abutilon theophrasti): 5 (Level 5: growth control rate is above 85%)

COC(=O)C[S@@+]([O-])c1c(C(F)(F)F)ccc(C(=O)Nc2nnc(C)o2)c1OC [Compound 353]
herbicidal activity and/or crop safety compared with the corresponding racemate or S configuration ([1]; no dose stated): better herbicidal activity and/or crop safety | weeding effect in post-emergence stage, activity level (growth control rate), Amaranthus retroflexus (Amaranthus retroflexus): 5 (Level 5: growth control rate is above 85%) | weeding effect in post-emergence stage, activity level (growth control rate), Echinochloa crusgali (Echinochloa crusgali): 5 (Level 5: growth control rate is above 85%)

COc1c(C(=O)Nc2nnc(C)o2)ccc(C(F)(F)F)c1[S@+]([O-])CCCl [Compound 332]
weeding effect in post-emergence stage, activity level (growth control rate), Setaria viridis (Setaria viridis): 5 (Level 5: growth control rate is above 85%) | weeding effect in post-emergence stage, activity level (growth control rate), Amaranthus retroflexus (Amaranthus retroflexus): 5 (Level 5: growth control rate is above 85%) | weeding effect in post-emergence stage, activity level (growth control rate), Echinochloa crusgali (Echinochloa crusgali): 5 (Level 5: growth control rate is above 85%) | weeding effect in post-emergence stage, activity level (growth control rate), Digitaria sanguinalis (Digitaria sanguinalis): 5 (Level 5: growth control rate is above 85%) | weeding effect in post-emergence stage, activity level (growth control rate), Abutilon theophrasti (Abutilon theophrasti): 5 (Level 5: growth control rate is above 85%)

Cc1nnc(NC(=O)c2ccc(C(F)(F)F)c([S@+]([O-])C(F)(C(F)(F)F)C(F)(F)F)c2F)o1 [Compound 32]
weeding effect in post-emergence stage, activity level (growth control rate), Setaria viridis (Setaria viridis): 5 (Level 5: growth control rate is above 85%) | weeding effect in post-emergence stage, activity level (growth control rate), Amaranthus retroflexus (Amaranthus retroflexus): 5 (Level 5: growth control rate is above 85%) | weeding effect in post-emergence stage, activity level (growth control rate), Echinochloa crusgali (Echinochloa crusgali): 5 (Level 5: growth control rate is above 85%) | weeding effect in post-emergence stage, activity level (growth control rate), Digitaria sanguinalis (Digitaria sanguinalis): 5 (Level 5: growth control rate is above 85%) | weeding effect in post-emergence stage, activity level (growth control rate), Abutilon theophrasti (Abutilon theophrasti): 5 (Level 5: growth control rate is above 85%)

COc1c(C(=O)Nc2nnc(C)o2)ccc(C(F)(F)F)c1[S+]([O-])COCc1ccccc1 (stereo not drawn) [Compound 347]
weeding effect in post-emergence stage, activity level (growth control rate), Setaria viridis (Setaria viridis): 5 (Level 5: growth control rate is above 85%) | weeding effect in post-emergence stage, activity level (growth control rate), Amaranthus retroflexus (Amaranthus retroflexus): 5 (Level 5: growth control rate is above 85%) | weeding effect in post-emergence stage, activity level (growth control rate), Echinochloa crusgali (Echinochloa crusgali): 5 (Level 5: growth control rate is above 85%) | weeding effect in post-emergence stage, activity level (growth control rate), Digitaria sanguinalis (Digitaria sanguinalis): 5 (Level 5: growth control rate is above 85%) | weeding effect in post-emergence stage, activity level (growth control rate), Abutilon theophrasti (Abutilon theophrasti): 5 (Level 5: growth control rate is above 85%)

O=C(Nc1nnco1)c1ccc(C(F)(F)F)c([S@+]([O-])CCC(F)(F)F)c1F [Compound 581]
weeding effect in post-emergence stage, activity level (growth control rate), Setaria viridis (Setaria viridis): 5 (Level 5: growth control rate is above 85%) | weeding effect in post-emergence stage, activity level (growth control rate), Amaranthus retroflexus (Amaranthus retroflexus): 5 (Level 5: growth control rate is above 85%) | weeding effect in post-emergence stage, activity level (growth control rate), Echinochloa crusgali (Echinochloa crusgali): 5 (Level 5: growth control rate is above 85%) | weeding effect in post-emergence stage, activity level (growth control rate), Digitaria sanguinalis (Digitaria sanguinalis): 5 (Level 5: growth control rate is above 85%) | weeding effect in post-emergence stage, activity level (growth control rate), Abutilon theophrasti (Abutilon theophrasti): 5 (Level 5: growth control rate is above 85%)

COc1c(C(=O)Nc2nnc(C)o2)ccc(C(F)(F)F)c1[S@@+]([O-])C(F)F [Compound 322]
weeding effect in post-emergence stage, activity level (growth control rate), Setaria viridis (Setaria viridis): 5 (Level 5: growth control rate is above 85%) | weeding effect in post-emergence stage, activity level (growth control rate), Amaranthus retroflexus (Amaranthus retroflexus): 5 (Level 5: growth control rate is above 85%) | weeding effect in post-emergence stage, activity level (growth control rate), Echinochloa crusgali (Echinochloa crusgali): 5 (Level 5: growth control rate is above 85%) | weeding effect in post-emergence stage, activity level (growth control rate), Digitaria sanguinalis (Digitaria sanguinalis): 5 (Level 5: growth control rate is above 85%) | weeding effect in post-emergence stage, activity level (growth control rate), Abutilon theophrasti (Abutilon theophrasti): 5 (Level 5: growth control rate is above 85%)

COc1c(C(=O)Nc2nnc(C)o2)ccc(C(F)(F)F)c1[S@+]([O-])CCC#N [Compound 338]
weeding effect in post-emergence stage, activity level (growth control rate), Setaria viridis (Setaria viridis): 5 (Level 5: growth control rate is above 85%) | weeding effect in post-emergence stage, activity level (growth control rate), Amaranthus retroflexus (Amaranthus retroflexus): 5 (Level 5: growth control rate is above 85%) | weeding effect in post-emergence stage, activity level (growth control rate), Echinochloa crusgali (Echinochloa crusgali): 5 (Level 5: growth control rate is above 85%) | weeding effect in post-emergence stage, activity level (growth control rate), Digitaria sanguinalis (Digitaria sanguinalis): 5 (Level 5: growth control rate is above 85%) | weeding effect in post-emergence stage, activity level (growth control rate), Abutilon theophrasti (Abutilon theophrasti): 5 (Level 5: growth control rate is above 85%)

COc1c(C(=O)Nc2nnc(C)o2)ccc(C(F)(F)F)c1[S@+]([O-])CC(F)(F)F [Compound 324]
weeding effect in post-emergence stage, activity level (growth control rate), Setaria viridis (Setaria viridis): 5 (Level 5: growth control rate is above 85%) | weeding effect in post-emergence stage, activity level (growth control rate), Amaranthus retroflexus (Amaranthus retroflexus): 5 (Level 5: growth control rate is above 85%) | weeding effect in post-emergence stage, activity level (growth control rate), Echinochloa crusgali (Echinochloa crusgali): 5 (Level 5: growth control rate is above 85%) | weeding effect in post-emergence stage, activity level (growth control rate), Digitaria sanguinalis (Digitaria sanguinalis): 5 (Level 5: growth control rate is above 85%) | weeding effect in post-emergence stage, activity level (growth control rate), Abutilon theophrasti (Abutilon theophrasti): 5 (Level 5: growth control rate is above 85%)

CCCCCC[S@@+]([O-])c1c(C(F)(F)F)ccc(C(=O)Nc2nnc(C)o2)c1F [Compound 12]
weeding effect in post-emergence stage, activity level (growth control rate), Setaria viridis (Setaria viridis): 3 (Level 3: growth control rate is greater than or equal to 40% and less than 60%) | weeding effect in post-emergence stage, activity level (growth control rate), Amaranthus retroflexus (Amaranthus retroflexus): 5 (Level 5: growth control rate is above 85%) | weeding effect in post-emergence stage, activity level (growth control rate), Echinochloa crusgali (Echinochloa crusgali): 5 (Level 5: growth control rate is above 85%) | weeding effect in post-emergence stage, activity level (growth control rate), Digitaria sanguinalis (Digitaria sanguinalis): 3 (Level 3: growth control rate is greater than or equal to 40% and less than 60%) | weeding effect in post-emergence stage, activity level (growth control rate), Abutilon theophrasti (Abutilon theophrasti): 5 (Level 5: growth control rate is above 85%)

Cc1nnc(NC(=O)c2ccc(C(F)(F)F)c([S+]([O-])C(F)(F)C(F)(F)C(F)(F)F)c2F)o1 (stereo not drawn) [Compound 33]
weeding effect in post-emergence stage, activity level (growth control rate), Setaria viridis (Setaria viridis): 5 (Level 5: growth control rate is above 85%) | weeding effect in post-emergence stage, activity level (growth control rate), Amaranthus retroflexus (Amaranthus retroflexus): 5 (Level 5: growth control rate is above 85%) | weeding effect in post-emergence stage, activity level (growth control rate), Echinochloa crusgali (Echinochloa crusgali): 5 (Level 5: growth control rate is above 85%) | weeding effect in post-emergence stage, activity level (growth control rate), Digitaria sanguinalis (Digitaria sanguinalis): 5 (Level 5: growth control rate is above 85%) | weeding effect in post-emergence stage, activity level (growth control rate), Abutilon theophrasti (Abutilon theophrasti): 5 (Level 5: growth control rate is above 85%)
